Experimental data published in patent publication US7288573B2, “Method of repelling insects” (priority 2001, dated 2007).
“And” between values parts separate entries of the source, which are not always exact repeats. Equal values may be shown once. “Also recorded” adds a separate entry of the source.

How the values were obtained:
Type in all cases: in vivo
[1] = Observation on the investigator's skin after application (Example 6); conditions: applied at full strength (100%) to hand/arm
cockroaches = test: Cockroach repellency, paste floor wax with 2-undecanone; conditions: one percent by weight in paste floor wax
Excerpt: A commercially available paste floor wax is combined with one percent by weight of 2-undecanone and the two ingredients mixed thoroughly together. The paste floor wax is then applied to a region of flooring and buffed. The same paste floor wax, without 2-undecanone, is applied to an adjacent region of flooring in the same amount and also buffed.

Aedes aegypti = test: Mosquito repellency of 2-undecanone versus DEET and Citronella in mineral oil (Example 9); conditions: for Percent Efficacy Post-Treatment / NP, Mean / Percent (percent of mosquitoes responding, landings on the treated hand/arm) / NP / number of bites recorded / observed repellent activity (words): 20% in mineral oil; for NP: single replicates; for observed repellent activity (words): observed 0 to 12 hours
Excerpt: Cages. Two mosquitoes cages were used for this experiment. The cages were constructed using wood framing and fine mesh wire screen. The dimensions of each cage were 59 cm high×55 cm wide by 59 cm deep. A hinged access door was installed at the front of each chamber for insertion of the water-filled containers filled with mosquito larvae. Also present at the front of each chamber was a 9 cm (I.D.) diameter plastic tube for insertion of the arm of the investigator. The arm insertion tube was sealed with a rubber stopper when not in use.
Mosquitoes and Mosquito Rearing. Mosquitoes (Aedes aegypti) were obtained as eggs from Dr. Gary Benzon (Benzon Research, Inc., Carlisle, Pa. 17013, USA) and allowed to hatch at three successive intervals so as to provide a continuing long-term supply of fresh insects. Following their arrival, the egg rafts were divided into approximately equal numbers in multiple water-filled containers within the test chambers, which also served as emergence cages. Following hatching, the larval cultures were fed with insect rearing compound supplied by United States Department of Agriculture, Gainesville, Fla., USA, courtesy of a person The water in the breeding chambers was changed regularly at two or three day intervals by filtration to minimize contamination and prevent overcrowding. Mosquitoes were bred throughout the 3-week study period in order to maintain a continuing supply of fresh insects (see below) and build up the population, usually exceeding 100 insects per cage.
Test Compounds and Testing Schedule. Testing was done with the mineral oil formulation of 2-undecanone for repellent activity by treating one arm of the investigator with approximately 1 ml of the test formulation. To avoid excessive bites and development of severe allergic reactions from multiple mosquito bites, treatments were applied to removable strips of cotton cloth taped to all parts of the investigator's hand and arm. Treatments were applied in a separate room, far from the mosquito cages. Following several minutes for the oil to soak in place, the cloth strips saturated with the treatment solution was attached to the investigator's wrist. Then, the treated arm was inserted through the insertion tube for 5 minutes. The other arm was treated with mineral oil (control) or a different compound and inserted into the insertion tube of the adjacent chamber. Next, the behavior of the mosquitoes in response to the presence of the investigator's arms was noted. Mosquito behavior was recorded as 1) landing or attempting to land on the investigator's hand or arm; 2) biting and sucking blood; or 3) dispersal away from the treated hand and arm towards the opposite ends of the cage. The approximate number of mosquitoes present in the cage at the beginning of each observation was noted. Treatments were alternated between the different cages. Each observation was repeated 3 times.
2-undecanone, DEET and Citronella arrived as liquids mixed in mineral oil in sealed plastic vials. To prepare the compounds for testing, the stocks were shaken vigorously to thoroughly mix the compounds in the mineral oil carrier, the vials opened and 1 ml samples applied directly as described above.
Observations. Mosquitoes were recorded as 1) repelled if they dispersed away from the treated hand/arm, changed course while in flight after approaching the treated hand/arm, touched the treated hand/arm and quickly withdrew; versus 2) not repelled if they landed on the treated hand/arm and remained on the cloth or skin of the investigator, or bit the investigator and sucked blood. The number of bites during the exposure period also was recorded.
[…] Efficacy was calculated according to the formula: Efficacy=[(no.landings/no.present in control)−(no.landings/no. present in experimental) divided by (no.landings/no.present in control)]×100.

Culex spp. = test: Mosquito repellency of 2-undecanone, treated arm in cage (Example 5); conditions: for No. landings: single replicates; for observed mosquito behavior / repellent effect (words): observed at 0, 3 and 6 hours
Excerpt: Two mosquitoes cages were constructed using wood framing and fine mesh wire screen. The dimensions of each cage were 59 cm high×55 cm wide×59 cm deep. A hinged access door was installed at the front of each chamber for insertion of the water-filled containers filled with mosquito pupae. Also present at the front of each chamber was a 9 cm diameter plastic tube (i.d.) for insertion of the arm of the investigator. The arm insertion tube was sealed with a rubber stopper when not in use.
Mosquitoes (Culex spp.) were obtained (as pupae) from Carolina Biological Supply Co., Burlington, N.C., USA. Following their arrival, the mosquitoes were divided into approximately equal numbers in two water-filled containers and placed in the two cages described above. Some of the mosquitoes had hatched upon arrival.
Testing was done with 2-undecanone for repellent activity by treating one arm of the investigator with approximately 1 ml of the test solution. Following several minutes for solvent evaporation, the treated arm was inserted through the insertion tube for 5 minutes. The other arm was treated with ethanol (control) or a different concentration of 2-undecanone, and inserted into the insertion tube of the adjacent chamber. Next, the behavior of the mosquitoes in response to the presence of the investigator's arms was noted. Mosquito behavior was recorded as 1) landing or attempting to land on the investigator's arm, versus 2) dispersal away from the treated arm towards the opposite ends of the cage. The approximate number of mosquitoes present at the beginning of the observations was noted. The observations were repeated (without re-treatment of the investigator's hand and arm) after 3 hours and again after 6 hours. Treatments were alternated between the different cages. Each observation was repeated 3 times. Tests were done with 20%, 5%, 2%, 0.5% 2-undecanone, 20% DEET, and the ethanol control.
With one exception, none of the mosquitoes succeeded in biting, although mosquitoes that landed on the investigator's arm were dislodged by flicking the arm or hand. In most cases, any physical movement of the hand or arm will induce the mosquito to leave. Thus, few if any bites were expected. Landings on the arm were considered as evidence of attraction, with intent to bite.

[2] = 0.5% on arm, 6 hours after treatment
[3] = 2% on arm, 6 hours after treatment
[4] = 5% on arm, 0 hours after treatment
[5] = 5% on arm, 3 hours after treatment
[6] = 5% on arm, 6 hours after treatment
[7] = 20% on arm, 0 hours after treatment
[8] = 20% on arm, 3 hours after treatment
[9] = 20% on arm, 6 hours after treatment

CCCCCCCCCCCC(C)=O [2-tridecanone]
skin irritation on application [1]: mildly irritating

CCCCCCCCCC(C)=O [2-undecanone]
time cockroaches spend in treated region versus control region of flooring (cockroaches): spend less time in the region containing 2-undecanone | residual activity (Aedes aegypti; 1% concentration): none after 3 hours | duration of residual activity (Aedes aegypti; 5% level): up to 12 hours | duration of residual efficacy (Aedes aegypti; 20% concentration in mineral oil): up to 12 hours | Percent Efficacy Post-Treatment (Aedes aegypti; 0 hours): 96.5% | NP, Mean (Aedes aegypti; 0 hours after treatment): 2.3 | Percent (percent of mosquitoes responding, landings on the treated hand/arm) (Aedes aegypti; 0 hours after treatment): 2.0% | NP (Aedes aegypti; 0 hours after treatment): 2 (3×) and 0 and 3 and 5 | Percent Efficacy Post-Treatment (Aedes aegypti; 3 hours): 90.1% | NP, Mean (Aedes aegypti; 3 hours after treatment): 3.7 | Percent (percent of mosquitoes responding, landings on the treated hand/arm) (Aedes aegypti; 3 hours after treatment): 5.0% | NP (Aedes aegypti; 3 hours after treatment): 1 and 6 and 4 | Percent Efficacy Post-Treatment (Aedes aegypti; 6 hours): 78.5% | NP, Mean (Aedes aegypti; 6 hours after treatment): 24.7 | Percent (percent of mosquitoes responding, landings on the treated hand/arm) (Aedes aegypti; 6 hours after treatment): 14.7% | NP (Aedes aegypti; 6 hours after treatment): 24 and 21 and 29 | Percent Efficacy Post-Treatment (Aedes aegypti; 9 hours): 81.5% | NP, Mean (Aedes aegypti; 9 hours after treatment): 4.7 | Percent (percent of mosquitoes responding, landings on the treated hand/arm) (Aedes aegypti; 9 hours after treatment): 11.8% | NP (Aedes aegypti; 9 hours after treatment): 6 and 1 and 7 | Percent Efficacy Post-Treatment (Aedes aegypti; 12 hours): 78.4% | number of bites recorded (Aedes aegypti; 12 hours): 4 | NP, Mean (Aedes aegypti; 12 hours after treatment): 7.7 | Percent (percent of mosquitoes responding, landings on the treated hand/arm) (Aedes aegypti; 12 hours after treatment): 12.2% | NP (Aedes aegypti; 12 hours after treatment): 4 and 8 and 11 | observed repellent activity (words) (Aedes aegypti): exceeding the efficacy of DEET (20%) and Citronella; also recorded: strong repellent activity | observed repellent activity (words) (Aedes aegypti; listed as 2-Undecanone): Comments: The 2-undecanone formulation was highly repellent. At zero hours, all; also recorded: No bites were observed until 12 hours | number of bites recorded (Aedes aegypti; zero hours): None attempted to feed | No. landings, Mean (Culex spp.; 0.5% on arm, 0 hours after treatment): 0.7 | No. landings, Mean (Culex spp.; 0.5% on arm, 3 hours after treatment): 0.7 | No. landings, Mean (Culex spp.; [2]): 0.3 | No. landings (Culex spp.; [2]): 0 (2×) and 1 | observed mosquito behavior / repellent effect (words) (Culex spp.; 0.5% on arm): no differences between the treated arm and the ethanol controls were observed | observed mosquito behavior / repellent effect (words) (Culex spp.; 0.5% on arm, listed as Undecanone): throughout the cage. No obvious avoidance, no dispersal away from | No. landings, Mean (Culex spp.; 2% on arm, 0 hours after treatment): 0.7 | No. landings, Mean (Culex spp.; 2% on arm, 3 hours after treatment): 1.0 | No. landings, Mean (Culex spp.; [3]): 0.7 | No. landings (Culex spp.; [3]): 1 (2×) and 0 | observed mosquito behavior / repellent effect (words) (Culex spp.; 2% on arm): at three hours after treatment, there was no effect | No. landings, Mean (Culex spp.; [4]): 0 | No. landings (Culex spp.; [4]): 0 | No. landings, Mean (Culex spp.; [5]): 0 | No. landings (Culex spp.; [5]): 0 | No. landings, Mean (Culex spp.; [6]): 1.0 | No. landings (Culex spp.; [6]): 1 | observed mosquito behavior / repellent effect (words) (Culex spp.; 5% on arm): immediate and obvious repellent behavior; also recorded: The effect was absent after 6 hours | observed mosquito behavior / repellent effect (words) (Culex spp.; 5% on arm, listed as Undecanone): Comments: The formulation was highly repellent. Mosquitoes | No. landings, Mean (Culex spp.; [7]): 0 | No. landings (Culex spp.; [7]): 0 | No. landings, Mean (Culex spp.; [8]): 0 | No. landings (Culex spp.; [8]): 0 | No. landings, Mean (Culex spp.; [9]): 0 | No. landings (Culex spp.; [9]): 0 | observed mosquito behavior / repellent effect (words) (Culex spp.; 20% on arm): the effect was lost after 6 hours | concentrations with the strongest repellent effect (Culex spp.; tested at 20%, 5%, 2%, 0.5%): strongest effect at the 5% and 20% concentrations
